Test results taken from US10350240B2, “Lanthanum carbonate hydroxide, lanthanum oxycarbonate and methods of their manufacture and use” (Spectrum Pharmaceuticals, Inc., priority 2010, dated 2019).

Experiments:
Bulk density = assay type: physicochemical; conditions: Renazorb-014 (LDOC), second block
Experimental: Bulk density in accordance with the invention can be determined by standard methods.
Graduated Cylinder Tare Weight was determined to be 225 g. 75 grams of sample was sieved into the graduated cylinder. The Gross Weight was determined to be 299.4 g. The volume of this sample was measured to be 141 mL. Thus, the Bulk Density of the powder is: Bulk Density (g/cc)=(299.4−225)/141=74.4/141=0.5277 g/cc Rounding this value to two decimal places gives a final reported value of 0.53 g/cc. 9.2 RSD=(R1−R2)×100/R1 where: RSD=Relative Standard Deviation (%) R1 & R2=Result of individual repeat (g/cc) 9.3 SR=R×100/V where: SR=Standard Recovery (%) R=Result for Reference Standard (g/cc) V=Historical average for standard (g/cc)

[1] = Laser particle size (Coulter LS230), aggregate D10/D50/D90 by volume; assay type: physicochemical; conditions: Renazorb-014 (LDOC), second block
Description: Aggregate size as described herein is either determined by scanning electron microscopy (SEM) or laser diffraction on a Coulter LS230. […] But these appear more aggregated.
Laser particle size data can be produced using, for example, a LS230 Laser Particle Size Analyzer manufactured by Coulter.
Average the runs using the LS230 software and have the software calculate the desired volume D results (i.e. for D1, D10, D50, D90, and D99).
The Refractive Index (RI) of a solid is required to perform an accurate laser PSD analysis for particles under 1 μm. The RI of the test materials were not listed in literature at the time this method was developed. […] Therefore an RI of 2.1 was chosen.

BET surface area = assay type: physicochemical; conditions: Renazorb-014 (LDOC), second block
Description: By “relatively greater” it is meant that if the processes of the '782 patent and those of the present invention were run under generally identical conditions but with, for example, ammonium carbonate or bicarbonate used instead of sodium carbonate, the surface area, as measured by BET or otherwise, of the LCH or lanthanum oxycarbonates of the present invention would be even higher than that resulting from the practice of the '782 patent. The ammonium carbonate process of the present invention should yield BET surface areas (SA) in the 1 to 100 m^2/g range for LCH. […] To this end, as used herein “relatively greater BET surface area” refers to the greater BET surface area of the LDOC compound of the present invention when compared to the respective compound in U.S. Pat. No. 7,588,782 when made using similar ingredients, and under similar conditions but using the process described in that patent. As noted above, both processes are capable of producing very fine particles/high surface area. Again without wishing to be bound by any particular theory of operation, it may be that the greater porosity of the materials resulting from the present invention may effectively increase the overall surface area (or more reactive surfaces) allowing for, inter alia, improved binding kinetics. This is predicated on the porosity of individual or primary particles, not aggregates. Thus, it is believed that the primary particles of the invention provide relatively greater porosity than would be measured for particles made in accordance with the '782 patent. […] Furthermore, “porosity” as used herein means cumulative adsorption pore volume determined using a static pressure surface area analyzer with nitrogen as the adsorbate and calculating the pore size by The Barrett, Joyner, and Halenda (BJH) method (Barrett E. P., Loyner L. G. and Halenda P. P., The determination of pore volume and area distributions in porous substances. I. Computations from nitrogen isotherms, J. Am. Chem. Soc. 73 (1951) pp. 373-380).
As contemplated herein, BET surface area of the lanthanum compounds disclosed herein may be determined as provided in U.S. Pat. No. 7,588,782.

[2] = Phosphate binding at buffered pH 4.5 in dissolution unit, ICP-OES (% reaction completion); conditions: Renazorb-014 (LDOC), second block; 4.5 pH @30 min
Description: For each run, both the Renazorb-013 (LCH) and the Renazorb-014 (LDOC) were characterized. Renazorb-013 is important to characterize because its features (particularly physical features such as BET-Surface-Area, Particle Size Distribution, crystalline phase by XRD, bulk density) strongly impact the same critical features of Renazorb-014. The typical characterization suite of Renazorb-013 and Renazorb-014 includes BET-Surface-Area (BET-SA), Particle Size Distribution (PSD), crystalline phase by XRD, bulk density, chloride content, lanthanum content, carbon content. On top of this Renazorb-014 is tested for phosphate binding performance (4.5 pH @30 min). Assays such as La, C, Cl are typically fairly consistent and not under scrutiny.
The following procedure may be used to determine the phosphate binding kinetics/capacity in solutions at a buffered pH=4.5 for lanthanum dioxycarbonate.
Briefly, a heated, acetate buffered acidic solution, adjusted to a known pH and containing a known amount of phosphate is stirred constantly throughout the test in a dissolution unit. To this stirred solution is added a known amount of lanthanum compound at time=0. […] All samples are diluted in the proper matrix and analyzed for phosphorus using an Inductively Coupled Plasma instrument equipped with an Optical Emission spectrophotometer detector (ICP-OES). […]

## O=C([O-])[O-].[La+3].[La+3].[O-2].[O-2] [Batch 110508, lanthanum dioxycarbonate]
Bulk density
  Bulk Density: 0.56 g/cc
[1]
  D10 Sonicated SOP-QC-GMP-2402: 6.6 um
  D50 Sonicated SOP-QC-GMP-2402: 50 um
  D90 Sonicated SOP-QC-GMP-2402: 151 um
BET surface area
  Surface Area: 16.7 m^2/g
[2]
  Po4 binding @4.5 pH (rxn comp. %): 92%
